The record followed here is patent publication US20260201008A1, “SECRETIN-DERIVED GLP1R SELECTIVE AGONISTS” (GUBRA A/S, priority 2023, published 2026).

The nature of data set [1]: Turbidity of crude library peptides (absorbance at 600 nm). The class given is physicochemical. Particulars: Physical stability of peptides. A digest of the protocol: (§1)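 Turbidity is the absorbance at 600 nm, taken before heating. Fibril signal is the mean ThT emission at 480 nm (450 nm excitation), read every 10 min over 72 h at 40° C with 700 rpm shaking between reads. Peptides at 267 μM, pH 4.0 acetate or pH 7.0 phosphate buffer (50 mM), 4 μM ThT final.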

The target in a further data set is SCTR (Homo sapiens, UniProt P47872). Description: hSCTR potency, cAMP accumulation in CHO-K1 cells stably overexpressing hSCTR. The class given is cell-based. More on the design: alternatively Euroscreen ES-712-AF; FAST-0161L; host or cells: CHO-K1. To be noted: cAMP accumulation, CHO-K1 cells overexpressing hSCTR; read-out: pEC50 hSCTR (converted). The method, boiled down: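 EC50 derived from variable-slope nonlinear regression on 11-point, 3-fold series run in duplicate (crude peptides: 5 points, 10-fold, n=1). Compound stimulation lasted 30 min at room temperature in casein/IBMX-containing DPBS (0.05%, 0.5 mM), 2000 cells/well; cAMP detected by time-resolved FRET after one hour.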
Background: Cyclic AMP is a second messenger, typically raised through Gs and lowered through Gi signalling.

A short description of data set [2]: Fibril formation of crude library peptides (Thioflavin T). The class given is physicochemical. More on the design: key: average ThT fluorescence emission at 480 nm (ex 450 nm), raw units. Particulars: Physical stability of peptides. A digest of the protocol:
as §1

In the next data set the target is GLP1R (Homo sapiens, UniProt P43220). Description: hGLP1R potency, cAMP accumulation in CHO-K1 cells stably overexpressing hGLP1R. The class given is cell-based. More on the design: host or cells: CHO-K1. Particulars: for Selectivity: SCTR EC50/GLP1R EC50 ratio; for EC50: cAMP accumulation, CHO-K1 cells overexpressing hGLP1R, read-out: pEC50 hGLPR1 (converted). A digest of the protocol: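 EC50 derives from variable-slope nonlinear regression of cAMP HTRF signal, with purified peptides tested as 11 three-fold dilutions in duplicate. Assay: hGLP1R-overexpressing CHO-K1 cells, 0.5 mM IBMX, 0.05% casein in DPBS, 30 min room-temperature stimulation, GLP-1(7-36) as reference agonist.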

Numbered stars: 1 amine (or outer) side, 2 acyl side, 3 side chain; on linkers, the order of the positions; unused ones are H or OH. Square brackets hold non-standard residues; d marks the D form. Side chains are listed from the residue outwards. Peptide text beside a SMILES is read from it. * marks the point of attachment. C20 diacid = O=C(O)CCCCCCCCCCCCCCCCCCC(=O)*; γGlu = O=C(O)[C@H](CCC(=O)[*:2])N[*:1]; AEEA = NCCOCCOCC(=O)O; Aib = CC(C)(N)C(=O)O

Sequence of SCTR (P47872 23-440): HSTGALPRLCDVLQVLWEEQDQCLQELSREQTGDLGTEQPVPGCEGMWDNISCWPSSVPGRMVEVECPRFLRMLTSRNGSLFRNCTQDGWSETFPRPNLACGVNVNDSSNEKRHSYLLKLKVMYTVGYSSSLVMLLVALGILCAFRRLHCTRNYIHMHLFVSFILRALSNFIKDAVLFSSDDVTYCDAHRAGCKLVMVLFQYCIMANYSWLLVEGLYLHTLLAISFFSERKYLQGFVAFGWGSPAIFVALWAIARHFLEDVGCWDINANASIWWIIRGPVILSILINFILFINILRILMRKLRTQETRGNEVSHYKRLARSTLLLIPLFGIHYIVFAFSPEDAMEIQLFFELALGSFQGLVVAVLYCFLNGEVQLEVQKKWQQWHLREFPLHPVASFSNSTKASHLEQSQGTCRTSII
Sequence of GLP1R (P43220 24-463): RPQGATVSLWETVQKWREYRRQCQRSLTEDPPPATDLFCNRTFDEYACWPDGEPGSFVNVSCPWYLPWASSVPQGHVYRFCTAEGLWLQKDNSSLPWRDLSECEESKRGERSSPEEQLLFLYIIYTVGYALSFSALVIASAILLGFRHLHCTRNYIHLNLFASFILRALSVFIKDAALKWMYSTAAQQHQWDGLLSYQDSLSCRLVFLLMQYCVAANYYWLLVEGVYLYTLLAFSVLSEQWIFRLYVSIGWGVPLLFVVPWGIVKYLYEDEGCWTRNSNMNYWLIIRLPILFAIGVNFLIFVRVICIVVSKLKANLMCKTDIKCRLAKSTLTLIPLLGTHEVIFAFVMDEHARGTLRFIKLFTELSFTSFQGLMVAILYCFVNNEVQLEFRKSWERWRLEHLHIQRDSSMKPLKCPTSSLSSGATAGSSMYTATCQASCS

For the compound `CC(C)C[C@H](NC(=O)[C@H](Cc1ccccc1)NC(=O)[C@H](CCCNC(=N)N)NC(=O)[C@H](CCC(N)=O)NC(=O)[C@H](CCC(=O)O)NC(=O)[C@H](C)NC(=O)[C@H](C)NC(=O)C(C)(C)NC(=O)[C@H](CCC(=O)O)NC(=O)[C@H](CCCCNC(=O)COCCOCCNC(=O)COCCOCCNC(=O)CC[C@H](NC(=O)CCCCCCCCCCCCCCCCCCC(=O)O)C(=O)O)NC(=O)[C@H](CC(C)C)NC(=O)[C@@H](NC(=O)[C@H](CO)NC(=O)[C@@H](NC(=O)[C@H](CC(=O)O)NC(=O)[C@H](CO)NC(=O)[C@@H](NC(=O)[C@H](Cc1ccccc1)NC(=O)[C@@H](NC(=O)CNC(=O)[C@H](CCC(=O)O)NC(=O)C(C)(C)NC(=O)[C@@H](N)Cc1c[nH]cn1)[C@@H](C)O)[C@@H](C)O)C(C)C)[C@@H](C)O)C(=O)N[C@@H](CCC(=O)O)C(=O)N[C@@H](Cc1c[nH]cn1)C(=O)N[C@@H](CC(C)C)C(=O)N[C@H](C(N)=O)C(C)C` [compound 16] (H-H[Aib]EGTFTSDVSTLK([AEEA-AEEA-γGlu-C20 diacid])E[Aib]AAEQRFLEHLV-NH2), in data set [1], the “Turbidity (pH 7)” value was found to be 0.08. For the same compound, the EC50 at SCTR was 126 nM. In data set [2], this compound displayed a Fibril formation of 11719. Also, at GLP1R, the Selectivity turned out to be 2876 and the EC50 is 0.0398 nM.
Turning to `CC(C)C[C@H](NC(=O)[C@H](Cc1ccccc1)NC(=O)[C@H](CCCNC(=N)N)NC(=O)[C@H](CCC(N)=O)NC(=O)[C@H](CO)NC(=O)[C@H](C)NC(=O)[C@H](C)NC(=O)[C@H](CCC(=O)O)NC(=O)[C@H](CCC(=O)O)NC(=O)[C@H](CCCCNC(=O)COCCOCCNC(=O)COCCOCCNC(=O)CC[C@H](NC(=O)CCCCCCCCCCCCCCCCCCC(=O)O)C(=O)O)NC(=O)[C@H](CC(C)C)NC(=O)[C@H](CCCNC(=N)N)NC(=O)[C@H](CO)NC(=O)[C@@H](NC(=O)[C@H](CC(=O)O)NC(=O)[C@H](CO)NC(=O)[C@@H](NC(=O)[C@H](Cc1ccccc1)NC(=O)[C@@H](NC(=O)CNC(=O)[C@H](CCC(=O)O)NC(=O)C(C)(C)NC(=O)[C@@H](N)Cc1c[nH]cn1)[C@@H](C)O)[C@@H](C)O)C(C)C)C(=O)N[C@@H](CCC(=O)O)C(=O)N[C@@H](Cc1c[nH]cn1)C(=O)N[C@@H](CC(C)C)C(=O)N[C@H](C(N)=O)C(C)C` [compound 17] (H-H[Aib]EGTFTSDVSRLK([AEEA-AEEA-γGlu-C20 diacid])EEAASQRFLEHLV-NH2), in data set [1], the “Turbidity (pH 7)” value worked out at 0.08. The EC50 at SCTR is 251 nM. This compound returned a Fibril formation in data set [2] of 10330. Besides, at GLP1R, the Selectivity came out at 10637 and the EC50 is 0.0251 nM.
On to `CC(C)C[C@H](NC(=O)[C@H](Cc1ccccc1)NC(=O)[C@H](CCCNC(=N)N)NC(=O)[C@H](CCC(N)=O)NC(=O)[C@H](CCC(=O)O)NC(=O)[C@H](C)NC(=O)[C@H](C)NC(=O)C(C)(C)NC(=O)[C@H](CCC(=O)O)NC(=O)[C@H](CCCCNC(=O)COCCOCCNC(=O)COCCOCCNC(=O)CC[C@H](NC(=O)CCCCCCCCCCCCCCCCCCC(=O)O)C(=O)O)NC(=O)[C@H](CC(C)C)NC(=O)[C@H](CCC(=O)O)NC(=O)[C@H](CO)NC(=O)[C@@H](NC(=O)[C@H](CC(=O)O)NC(=O)[C@H](CO)NC(=O)[C@@H](NC(=O)[C@H](Cc1ccccc1)NC(=O)[C@@H](NC(=O)CNC(=O)[C@H](CCC(=O)O)NC(=O)C(C)(C)NC(=O)[C@@H](N)Cc1c[nH]cn1)[C@@H](C)O)[C@@H](C)O)C(C)C)C(=O)N[C@@H](CCC(=O)O)C(=O)N[C@@H](Cc1c[nH]cn1)C(=O)N[C@@H](CC(C)C)C(=O)N[C@H](C(N)=O)C(C)C` [compound 18] (H-H[Aib]EGTFTSDVSELK([AEEA-AEEA-γGlu-C20 diacid])E[Aib]AAEQRFLEHLV-NH2), for which, in data set [1], the “Turbidity (pH 7)” value worked out at 0.09. Also, the figures for the EC50 at SCTR and at GLP1R were 501 nM and 0.0316 nM, respectively. This compound also gave a Fibril formation in data set [2] of 12140. For the same compound, at GLP1R, the Selectivity is recorded as 16263.
Taken in the same sequence, the figures for `CC(C)C[C@H](NC(=O)[C@H](CCC(=O)O)NC(=O)[C@H](CCCCNC(=O)COCCOCCNC(=O)COCCOCCNC(=O)CC[C@H](NC(=O)CCCCCCCCCCCCCCCCCCC(=O)O)C(=O)O)NC(=O)[C@H](CC(C)C)NC(=O)[C@H](CCCNC(=N)N)NC(=O)[C@H](CO)NC(=O)[C@@H](NC(=O)[C@H](CC(=O)O)NC(=O)[C@H](CO)NC(=O)[C@@H](NC(=O)[C@H](Cc1ccccc1)NC(=O)[C@@H](NC(=O)CNC(=O)[C@H](CCC(=O)O)NC(=O)C(C)(C)NC(=O)[C@@H](N)Cc1c[nH]cn1)[C@@H](C)O)[C@@H](C)O)C(C)C)C(=O)N[C@@H](C)C(=O)N[C@@H](C)C(=O)N[C@@H](CO)C(=O)N[C@@H](CCC(N)=O)C(=O)N[C@@H](CCCNC(=N)N)C(=O)N[C@@H](Cc1ccccc1)C(=O)N[C@@H](CC(C)C)C(=O)N[C@@H](CCC(=O)O)C(=O)N[C@@H](Cc1c[nH]cn1)C(=O)N[C@@H](CC(C)C)C(=O)N[C@H](C(N)=O)C(C)C` [compound 19] (H-H[Aib]EGTFTSDVSRLK([AEEA-AEEA-γGlu-C20 diacid])ELAASQRFLEHLV-NH2) were 0.10, 631 nM, 0.0794 nM, 170210 and 7342.
Taken in the same sequence, the figures for `CC(C)C[C@H](NC(=O)[C@H](Cc1ccccc1)NC(=O)[C@H](CCCNC(=N)N)NC(=O)[C@H](CCC(N)=O)NC(=O)[C@H](CO)NC(=O)[C@H](C)NC(=O)[C@H](C)NC(=O)[C@@H](NC(=O)[C@H](CCC(=O)O)NC(=O)[C@H](CCCCNC(=O)COCCOCCNC(=O)COCCOCCNC(=O)CC[C@H](NC(=O)CCCCCCCCCCCCCCCCCCC(=O)O)C(=O)O)NC(=O)[C@H](CC(C)C)NC(=O)[C@@H](NC(=O)[C@H](CO)NC(=O)[C@@H](NC(=O)[C@H](CC(=O)O)NC(=O)[C@H](CO)NC(=O)[C@@H](NC(=O)[C@H](Cc1ccccc1)NC(=O)[C@@H](NC(=O)CNC(=O)[C@H](CCC(=O)O)NC(=O)C(C)(C)NC(=O)[C@@H](N)Cc1c[nH]cn1)[C@@H](C)O)[C@@H](C)O)C(C)C)[C@@H](C)O)[C@@H](C)O)C(=O)N[C@@H](CCC(=O)O)C(=O)N[C@@H](Cc1c[nH]cn1)C(=O)N[C@@H](CC(C)C)C(=O)N[C@H](C(N)=O)C(C)C` [compound 20] (H-H[Aib]EGTFTSDVSTLK([AEEA-AEEA-γGlu-C20 diacid])ETAASQRFLEHLV-NH2) were 0.10, 398 nM, 0.02 nM, 33108 and 22019.
